From paper PMC10291551, “Characterization of a Potent and Orally Bioavailable Lys-Covalent Inhibitor of Apoptosis Protein (IAP) Antagonist” (Journal of Medicinal Chemistry, 2023)
Converted amounts (≈) assume the structure as drawn. One block for each compound: values may come before it.

What was measured:
[1] = target: T1, cIAP1-BIR3 (Homo sapiens, UniProt Q13490); assay: DELFIA displacement assay (biotinylated AVPI peptide); format: binding
T1 construct: from the BIR3 domains of XIAP, cIAP1, and cIAP2

[2] = in vivo; settings: Balb/c, mouse, plasma, 30 mg/kg
[3] = pH = 7.5, T = 25 °C; cited from earlier work
[4] = Solubility in dosing formulation; format: physicochemical; settings: dosing formulation of 80% PBS, 10% ethanol, 10% Tween80, aqueous with cosolvent or surfactant or cyclodextrin
[5] = set-up: method as in PMID 31550155; settings: cited from earlier work

IC50 ([1]; after 6 h preincubation (bottom values)): 0.0193 µM
IC50 ([1]; without preincubation (top values)): 0.0166 ± 0.0017 µM
Structure (SMILES): CN[C@@H](C)C(=O)N[C@H](C(=O)N1CCC[C@H]1C(=O)N[C@@H]1CCc2c(O)cccc21)C1CCCCC1 [compound 1, (S)-1-((S)-2-cyclohexyl-2-((S)-2-(methylamino)propanamido)acetyl)-N-((R)-4-hydroxy-2,3-dihydro-1H-inden-1-yl)pyrrolidine-2-carboxamide]

Structure (SMILES): CN[C@@H](C)C(=O)N[C@H](C(=O)N1CCC[C@H]1C(=O)N[C@@H]1CCc2c(OS(=O)(=O)F)cccc21)C1CCCCC1 [142D6, (R)-1-((S)-1-((S)-2-cyclohexyl-2-((S)-2-(methylamino)propanamido)acetyl)pyrrolidine-2-carboxamido)-2,3-dihydro-1H-inden-4-yl sulfurofluoridate]
bioavailability at 24 h ([2]; ip): 35%
bioavailability at 24 h ([2]; po): 36%
solubility in aqueous buffer [3]: up to 2 mM
solubility [4]: 7.5 mg/mL (≈ 13.6 mM)

Structure (SMILES): CN[C@@H](C)C(=O)N[C@H](C(=O)N1CCC[C@H]1c1nc(C(=O)c2ccc(F)cc2)cs1)C1CCCCC1 [LCL161]
plasma stability t1/2 [5]: > 2 h
